The target in test [1] is Corticotropin-releasing factor receptor 1 (Rattus norvegicus) (UniProt P35353). Kind of test: Compound was tested for the inhibition of binding of the radioligand, [125 I-Tyr0]-CRF to rat cerebral cortex membrane.
Test [2] has the same target. Kind of test: Inhibition of corticotropin releasing factor receptor mediated increase in cAMP level using rat cortical homogenates in vitro.

Corticotropin-releasing factor receptor 1 (Rattus norvegicus), sequence (P35353 whole entry, looked up): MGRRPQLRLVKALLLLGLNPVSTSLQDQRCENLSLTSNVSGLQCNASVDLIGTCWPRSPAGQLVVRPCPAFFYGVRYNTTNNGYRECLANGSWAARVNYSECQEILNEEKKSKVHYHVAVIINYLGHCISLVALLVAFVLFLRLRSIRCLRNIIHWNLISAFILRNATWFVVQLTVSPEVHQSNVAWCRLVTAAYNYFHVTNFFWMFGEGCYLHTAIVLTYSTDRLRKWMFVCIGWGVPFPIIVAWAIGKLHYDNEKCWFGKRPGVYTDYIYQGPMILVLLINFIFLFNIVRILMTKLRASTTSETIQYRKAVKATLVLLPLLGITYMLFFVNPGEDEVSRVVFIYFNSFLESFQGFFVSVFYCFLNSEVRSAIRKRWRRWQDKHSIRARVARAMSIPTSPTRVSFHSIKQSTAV

The compound `CCN(c1nc(C)cc(N2CCOCC2)n1)c1ccc(C(C)C)cc1Br` [(2-Bromo-4-isopropyl-phenyl)-ethyl-(4-methyl-6-morpholin-4-yl-pyrimidin-2-yl)-amine] gave an inhibition constant Ki in test [1] of 63 nM. Compound `COCC(COC)n1nnc2c(Nc3c(C)cc(C)cc3Cl)nc(C)cc21` [DMP-695] displayed an IC50 in test [2] of 79 nM.

The values are drawn from BindingDB's records for doi:10.1021/jm990590f (Dupont Pharmaceuticals, 2000).
